Assay [1] concerns the target T1, wild-type InhA (Mycobacterium tuberculosis, UniProt P9WGR1). Briefly: InhA progress curve assays. The assay is classed as biochemical. As to conditions: for Slow-onset: Yes/No.
Assay [2] concerns M. tuberculosis. Briefly: Antibacterial growth assay. The assay is classed as cell-based, Mycobacterium tuberculosis.
For assay [3], the target named is T1, wild-type InhA. The assay can be described thus: InhA enzyme inhibition, steady state kinetics. It counts as biochemical.
For assay [4], the system named is M. tuberculosis Erdman. The assay can be described thus: Rapid M. tuberculosis animal model of efficacy. The assay is classed as in vivo, Mycobacterium tuberculosis. The following applies: for reduction of bacterial counts in the spleen: GKO C57BL/6 mice, IP, 10 days of treatment, compared to untreated controls; for efficacy in rapid murine model of TB infection: mice, IP delivery, bacterial CFUs in spleen.

Assay [5] concerns the target T1, wild-type InhA. As to conditions: cited from earlier work.
Assay [6] has as its system M. tuberculosis Erdman. As to conditions: mice, bacterial load in lung or spleen; cited from earlier work.
Assay [7] has as its system M. tuberculosis. The following applies: cited from earlier work.
The mark [8] stands for this setting: Table 1, lowest concentration inhibiting visible growth.
Where [9] appears, read: Table 1, slow-onset (time-dependent) inhibition of InhA.

Structures are written as SMILES. Converted amounts (≈) assume the structure as drawn. “Also recorded” adds a separate entry of the source. Read-outs that look alike come from different tables or passages of the source.

T1 sequence (P9WGR1 whole entry, looked up): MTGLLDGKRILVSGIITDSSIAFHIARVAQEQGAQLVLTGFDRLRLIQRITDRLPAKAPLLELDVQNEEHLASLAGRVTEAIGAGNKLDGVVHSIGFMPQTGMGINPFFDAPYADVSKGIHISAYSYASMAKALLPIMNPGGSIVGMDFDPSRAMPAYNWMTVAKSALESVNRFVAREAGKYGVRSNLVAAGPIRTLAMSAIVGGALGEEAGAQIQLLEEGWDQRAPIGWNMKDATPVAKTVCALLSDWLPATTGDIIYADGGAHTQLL

The MIC is the lowest concentration that inhibits growth of the organism. A higher MIC goes with a less susceptible organism. As usually defined, the IC50 is the concentration that inhibits the measured activity by half. The low end stands for greater potency in that assay, the high end for weaker potency in that assay. For `CCCCCCc1ccc(Oc2cccnc2F)c(O)c1` [PT161, 2-((2-Fluoropyridin-3-yl)oxy)-5-hexylphenol], in assay [1] (Table 3), the Slow-onset entry was “slow-onset inhibition and Yes”. Further, the minimal inhibitory concentration (MIC) in assay [2] (Mycobacterium tuberculosis) came out at 0.312 µg/mL (≈ 1.08 µM). This compound had an IC50 in assay [3] of 40 ± 20 nM.

For `CCCCCCc1ccc(Oc2cncnc2N)c(O)c1` [PT134, 2-((4-Aminopyrimidin-5-yl)oxy)-5-hexylphenol], the minimum inhibitory concentration (MIC) in assay [2] (Mycobacterium tuberculosis) came to 3.12 µg/mL (≈ 10.9 µM). In assay [3], the IC50 came out at 239 ± 46.8 nM.

With `CCCCCCc1ccc(Oc2ccccc2[N+](=O)[O-])c(O)c1` [PT010], the MIC in assay [2] (setting [8]) was determined as 12.50 µg/mL (≈ 39.6 µM).

What is called Ki is a measure of affinity in units of concentration, obtained from inhibition or displacement. The low end stands for higher affinity, the high end for lower affinity. Turning to `CCCCCCc1ccc(Oc2ccccc2I)c(O)c1` [PT096, 5-Hexyl-2-(2-iodophenoxy)phenol], the Ki in assay [1] stood at 3.72 ± 5.13 nM. Besides, the Slow-onset result in assay [1] (setting [9]) was “No”. Further, the minimum inhibitory concentration (MIC) in assay [2] (Mycobacterium tuberculosis) was determined as 25 µg/mL (≈ 63.1 µM). The compound also registered a half-inhibitory concentration (IC50) in assay [3] of 44.6 ± 7.5 nM.

On to `CCCCCCc1ccc(Oc2c(F)cccc2Cl)c(O)c1` [PT133, 2-(2-Chloro-6-fluorophenoxy)-5-hexylphenol], for which the lowest concentration to inhibit growth in assay [2] (Mycobacterium tuberculosis) (MIC) was 25 µg/mL (≈ 77.4 µM). Further, in assay [3], the IC50 was determined as 79.7 ± 24.4 nM.

`CCCCCCc1ccc(Oc2cnccc2C#N)c(O)c1` [PT115, 3-(4-Hexyl-2-hydroxyphenoxy)isonicotinonitrile] displayed a residence time in assay [1] greater than 20 min. In addition, in assay [1] (Table 3), the Slow-onset entry is on record as “Yes”. The compound further registered a minimum inhibitory concentration (MIC) in assay [2] (Mycobacterium tuberculosis) of 12.5 µg/mL (≈ 42.2 µM). In assay [3], this compound yielded a 50% inhibitory concentration (IC50) of 891 ± 106 nM.

With `CCCCCCc1ccc(Oc2ccccc2O)c(O)c1` [PT114, 5-Hexyl-2-(2-hydroxyphenoxy)phenol], the inhibitory constant (Ki) in assay [1] amounted to 15.9 ± 3.7 nM. Further, the Slow-onset result in assay [1] (setting [9]) is “No”. In assay [2] (Mycobacterium tuberculosis), this compound gave a minimum inhibitory concentration (MIC) of 12.5 µg/mL (≈ 43.6 µM). Besides, the IC50 in assay [3] worked out at 48 ± 3 nM.

`CCCCCCc1ccc(Oc2c(F)cccc2C#N)c(O)c1` [PT111, 3-Fluoro-2-(4-hexyl-2-hydroxyphenoxy) benzonitrile]: the MIC in assay [2] (Mycobacterium tuberculosis) was determined as 25 µg/mL (≈ 79.8 µM). The compound also returned an IC50 in assay [3] of 100 ± 9 nM.

In the case of `CCCCCCc1ccc(Oc2ccccc2C(F)(F)F)c(O)c1` [PT095, 5-Hexyl-2-(2-(trifluoromethyl)phenoxy)phenol], in assay [1] (setting [9]), the Slow-onset result is reported as “No”. In assay [2] (Mycobacterium tuberculosis), the lowest concentration to inhibit growth (MIC) was 50 µg/mL (≈ 148 µM). In assay [3], this compound registered a half-inhibitory concentration (IC50) of 29.7 ± 1.2 nM.

Turning to `CCCCCCc1ccc(Oc2ccccc2C)c(O)c1` [PT070], in assay [4], the “reduction of bacterial counts in the spleen” value stood at 0.57 ± 0.26 log10 and the “efficacy in rapid murine model of TB infection” value (“efficacy in rapid murine model” for short) is “demonstrated efficacy”. Moreover, in assay [1] (Table 1), the Ki was found to be 0.044 ± 0.005 nM and the “residence time” value was found to be 24 ± 2 min. Besides, in assay [1] (setting [9]), the Slow-onset result is “slow onset and Yes”. Also, in assay [5], the “residence time on InhA” value is listed as 24 min. This compound showed a minimum inhibitory concentration (MIC) in assay [2] (setting [8]) of 3.125 µg/mL (≈ 11 µM). In addition, the MIC in assay [2] (Table 2) worked out at 3.125 µg/mL (≈ 11 µM). For the same compound, the 50% inhibitory concentration (IC50) in assay [3] (Table 1, enzyme concentration 100 nM) amounted to 50.7 ± 4 nM.

For the compound `CCCCCCc1ccc(Oc2ccccc2Cl)c(O)c1` [PT091, 2-(2-Chlorophenoxy)-5-hexylphenol], in assay [4], the “reduction of bacterial counts in the spleen” value was 0.69 ± 0.22 log10 and the “efficacy in rapid murine model” value is reported as “demonstrated efficacy”. The compound also yielded a residence time in assay [1] of 21 ± 3 min. For the same compound, the Slow-onset entry in assay [1] (setting [9]) is “slow onset and Yes”. In assay [2] (Mycobacterium tuberculosis), this compound displayed a minimum inhibitory concentration (MIC) of 1.56 µg/mL (≈ 5.12 µM).

Compound `CCCCCCc1ccc(Oc2cnccc2N)c(O)c1` [PT112, 2-((4-Aminopyridin-3-yl)oxy)-5-hexylphenol] showed a minimal inhibitory concentration (MIC) in assay [2] (Mycobacterium tuberculosis) of 50 µg/mL (≈ 175 µM). The same compound displayed an IC50 in assay [3] of 69000 ± 700 nM. In addition, the “fold increase in IC50 value, amino group compared to fluorine group” value in assay [3] (PT013 vs. PT113, PT112 vs. PT161) is on record as 1700 fold. For the same compound, the “fold difference in IC50 value between PT134 and PT112” value in assay [3] (PT134 (2'- and 4'-N) vs 4'-N analogue PT112) was 300 fold.

`CCCCCCc1ccc(Oc2cccnc2C#N)c(O)c1` [PT164, 3-(4-Hexyl-2-hydroxyphenoxy)picolinonitrile]: the Slow-onset result in assay [1] (Table 3) is “slow-onset inhibition and Yes”. This compound returned an MIC in assay [2] (Mycobacterium tuberculosis) of less than 0.39 µg/mL. For the same compound, in assay [3], the IC50 was 308 ± 4.2 nM.

In assay [2] (Mycobacterium tuberculosis), `CCCCCCc1ccc(Oc2cnccc2C(=O)O)c(O)c1` [PT116, 3-(4-Hexyl-2-hydroxyphenoxy)isonicotinic acid] displayed a minimum inhibitory concentration (MIC) of 25 µg/mL (≈ 79.3 µM). Also, the half-maximal inhibitory concentration (IC50) in assay [3] was greater than 12000 nM.

With `CCCCCCc1ccc(Oc2c(Cl)cccc2Cl)c(O)c1` [PT109, 2-(2,6-Dichlorophenoxy)-5-hexylphenol], 25 µg/mL (≈ 73.7 µM) was the least that counted as inhibitory in assay [2] (Mycobacterium tuberculosis) (MIC). In assay [3], this compound came in with a half-maximal inhibitory concentration (IC50) of 86 ± 6 nM.

For the compound `CCCCCCc1ccc(Oc2ccccc2F)c(O)c1` [PT113, 2-(2-Fluorophenoxy)-5-hexylphenol], in assay [1], the affinity, expressed as Ki, was 0.09 ± 0.02 nM and the residence time was determined as 9 ± 3 min. Moreover, the Slow-onset entry in assay [1] (setting [9]) was “Yes”. This compound also came in with an MIC in assay [2] (Mycobacterium tuberculosis) of 1.56 µg/mL (≈ 5.41 µM). This compound also came in with an IC50 in assay [3] of 12.1 ± 4.8 nM.

As to `CCCCCCc1ccc(Oc2ccc([N+](=O)[O-])cc2C)c(O)c1` [PT107, 5-Hexyl-2-(2-methyl-4-nitrophenoxy)phenol], in assay [1], the Ki was found to be 0.13 ± 0.03 nM. Inhibition of growth in assay [2] (Mycobacterium tuberculosis) (MIC) required 6.25 µg/mL (≈ 19 µM). The compound also returned a concentration for half-maximal inhibition (IC50) in assay [3] of 50 ± 5 nM.

Take `CCCCCCc1ccc(Oc2ccccc2)c(O)c1` [PT004]: the minimum inhibitory concentration (MIC) amounted to 2.1 µg/mL (≈ 7.77 µM) in assay [2] (setting [8]) and 2.1 ± 0.9 µg/mL (≈ 7.77 µM) in assay [2] (Table 2). The “efficacy in rapid murine model” value in assay [6] was “failed to observe a significant reduction in bacterial load; also recorded: did not show efficacy; also recorded: did not significantly reduce the bacterial load; also recorded: does not demonstrate efficacy; also recorded: lack of efficacy”. Further, the “bacterial load in rapid macrophage model of TB infection” value in assay [7] is listed as “had efficacy in a macrophage TB assay; also recorded: reduced the bacterial load”.

`CCCCCCc1ccc(Oc2ccccc2Br)c(O)c1` [PT092, 2-(2-Bromophenoxy)-5-hexylphenol]: in assay [1], the residence time came to 30 ± 3 min. Moreover, the Slow-onset entry in assay [1] (setting [9]) is reported as “Yes”. In assay [2] (Mycobacterium tuberculosis), this compound had a minimal inhibitory concentration (MIC) of 3.12 µg/mL (≈ 8.95 µM).

Compound `CCCCCCc1ccc(Oc2c(C)cccc2C)c(O)c1` [PT108, 2-(2,6-Dimethylphenoxy)-5-hexylphenol] yielded a minimum inhibitory concentration (MIC) in assay [2] (Mycobacterium tuberculosis) of 100 µg/mL (≈ 335 µM). In assay [3], the half-inhibitory concentration (IC50) worked out at 1570 ± 200 nM.

In assay [2] (Table 3), `CCCCCCc1ccc(Oc2ccccn2)c(O)c1` [PT077] had an MIC of 3.13 µg/mL (≈ 11.5 µM).

As to `CCCCCCc1ccc(Oc2ccccc2N)c(O)c1` [PT013], the MIC in assay [2] (setting [8]) was found to be 3.13 µg/mL (≈ 11 µM).

In the case of `CCCCCCc1ccc(Oc2ccccc2C#N)c(O)c1` [PT119, 2-(4-Hexyl-2-hydroxyphenoxy)benzonitrile], in assay [1], the residence time was 80 ± 12 min. In assay [1] (setting [9]), the Slow-onset entry is recorded as “Yes”. In addition, the “fold reduction of binding affinity compared to PT070” value in assay [1] (ratio of Ki) is given as ~ 50 fold. In assay [2] (Mycobacterium tuberculosis), this compound had a minimum inhibitory concentration (MIC) of 2.5 µg/mL (≈ 8.46 µM).

`CCCCCCc1ccc(Oc2c(C)cccc2N)c(O)c1` [PT110, 2-(2-Amino-6-methylphenoxy)-5-hexylphenol]: the MIC in assay [2] (Mycobacterium tuberculosis) was greater than 100 µg/mL; in assay [2] (Table 2), “total loss”.
